Measured values as given in ChEMBL document CHEMBL1154043, “Synthesis and structure-activity relationship of a novel series of heterocyclic sulfonamide gamma-secretase inhibitors” (Bioorg Med Chem, 2009).
Active and inactive are the calls of the source. No cut-off for these calls is given here.

Legend:
[1] = system: CHO; assay: Inhibition of gamma-secretase-mediated cleavage of human APP expressed in CHO cells assessed as reduction in amyloid beta42 production after 24 hrs by double sandwich ELISA; format: cell-based
[2] = Inhibition of gamma-secretase assessed as increase in beta-C-terminal fragment level after 24 hrs by double sandwich ELISA
[3] = Inhibition of gamma-secretase assessed as effect on APP level after 24 hrs by double sandwich ELISA
[4] = Inhibition of gamma-secretase-mediated cleavage of human APP expressed in CHO cells assessed as reduction in amyloid beta40 production after 24 hrs by double sandwich ELISA; format: cell-based
[5] = target: Gamma-secretase (Homo sapiens) (UniProt Q96BI3+Q9NZ42+Q8WW43+P49768+Q92542+P49810); assay: Displacement of [3H](S)-5-chloro-N-(3-ethyl-1-hydroxypentan-2-yl)thiophene-2-sulfonamide from gamma secretase in human SH-SY5Y cells after 1 hr; format: cell-based
[6] = Selectivity ratio of EC50 for gamma-secretase-mediated mouse notch cleavage to EC50 for gamma-secretase-mediated amyloid beta40 production
[7] = Inhibition of gamma-secretase-mediated mouse notch cleavage expressed in CHOK1 cells assessed as secreted alkaline phosphatase level after 48 hrs by chemiluminescence assay; format: cell-based; settings: CHO-K1, 48 h

SMILES | Activity [2] | Activity [3] | EC50 [4] [nM] | Activity [5] | Selectivity ratio [6] | EC50 [7] [nM] | Activity [1]
CC(C)C(NS(=O)(=O)c1ccc(Cl)s1)c1ccnn1-c1ccccc1 (configuration not stated) | Active | Active | 1120 | – | – | – | Active
COc1ccc(-n2nccc2[C@@H](NS(=O)(=O)c2ccc(Cl)s2)C(C)C)cc1 | Active | Active | 550 | – | 11 | 6120 | Active
CCC(CC)C(NS(=O)(=O)c1ccc(C#N)cc1)c1ccnn1-c1ccccc1 (configuration not stated) | Active | Active | 85200 | – | – | – | Active
CC(C)[C@@H](NS(=O)(=O)c1ccc(Cl)s1)c1ccnn1-c1ccc(F)cc1 | Active | Active | > 15000 | – | – | – | Active
CCC(CC)[C@@H](NS(=O)(=O)c1ccc(Cl)s1)c1ccnn1Cc1ccc(O)cc1 | Active | Active | 8500 | – | – | – | Active
CCC(CC)C(NS(=O)(=O)c1ccc(Cl)s1)c1ncnn1Cc1ccccc1 (configuration not stated) | Active | Active | 1010 | – | – | – | Active
CCC(CC)C(NS(=O)(=O)c1ccc(Cl)s1)c1ncnn1Cc1ccc(OC(F)(F)F)cc1 (configuration not stated) | Active | Active | 990 | – | – | – | Active
CC(C)[C@H](O)C(=O)N[C@@H](C)C(=O)N[C@@H]1C(=O)N(C)CCc2ccccc21 | – | – | – | Active | – | – | –
CC(C)[C@H](NS(=O)(=O)c1ccc(Cl)s1)c1ccnn1-c1ccc(F)cc1 | Active | Active | 1010 | – | – | – | Active
CCC(CC)C(NS(=O)(=O)c1ccc(Cl)s1)c1ccn[nH]1 (configuration not stated) | Active | Active | 19500 | – | – | – | Active
CCC(CC)C(NS(=O)(=O)c1ccc(Cl)cc1)c1ccnn1Cc1ccc(OC)cc1 (configuration not stated) | Active | Active | 1980 | – | – | – | Active
CCC(CC)C(NS(=O)(=O)c1ccc(Cl)s1)c1ncnn1Cc1ccc(F)cc1 (configuration not stated) | Active | Active | 480 | – | – | – | Active
CCC(CC)C(NS(=O)(=O)c1ccc(Cl)s1)c1nccn1Cc1ccccc1 (configuration not stated) | Active | Active | 19400 | – | – | – | Active
COc1ccc(Cn2cccc2C(NS(=O)(=O)c2ccc(Cl)s2)C(C)C)cc1 (configuration not stated) | Active | Active | 13300 | – | – | – | Active
Cc1ccc(-n2nccc2[C@H](NS(=O)(=O)c2ccc(Cl)s2)C(C)C)cc1 | Active | Active | > 15000 | – | – | – | Active
CCC(CC)C(NS(=O)(=O)c1ccc(Cl)s1)c1ncnn1Cc1ccc(C)cc1 (configuration not stated) | Active | Active | 880 | – | – | – | Active
CCC(CC)C(NS(=O)(=O)c1ccc(Br)cc1)c1ccnn1Cc1ccc(OC)cc1 (configuration not stated) | Active | Active | 2270 | – | – | – | Active
CCC(CC)C(NS(=O)(=O)c1ccc(Cl)s1)c1ncnn1Cc1ccc(OC)cc1 (configuration not stated) | Active | Active | 940 | – | – | – | Active
Cc1ccc(-n2nccc2[C@@H](NS(=O)(=O)c2ccc(Cl)s2)C(C)C)cc1 | Active | Active | 320 | – | 39 | 12600 | Active
CCC(CC)C(NS(=O)(=O)c1ccc(Cl)s1)c1ccnn1Cc1ccc(OC)cc1 (configuration not stated) | Active | Active | 130 | – | – | – | Active
CCC(CC)C(NS(=O)(=O)c1ccc(Cl)s1)c1ccnn1-c1ccc(OC)cc1 (configuration not stated) | Active | Active | 1560 | – | – | – | Active
CCC(CC)C(NS(=O)(=O)c1ccc(Cl)s1)c1ccnn1-c1ccccc1 (configuration not stated) | Active | Active | 1620 | – | – | – | Active
Cc1ccc(Cn2ncnc2C(NS(=O)(=O)c2ccc(Cl)s2)C(C)C)cc1 (configuration not stated) | Active | Active | 2890 | – | – | – | Active
CCC(CC)C(c1ccnn1-c1ccccc1)N(C)S(=O)(=O)c1ccc(Br)s1 (configuration not stated) | Active | Active | 65100 | – | – | – | Active
CCC(CC)[C@H](NS(=O)(=O)c1ccc(Cl)s1)c1ccnn1-c1ccc(OC)cc1 | Active | Active | 990 | – | 4 | 3970 | Active
CCC(CC)C(NS(=O)(=O)c1ccc(Cl)s1)c1nccn1Cc1ccc(OC)cc1 (configuration not stated) | Active | Active | 50600 | – | – | – | Active

More lines, main results first:

Activity [2] | Activity [3] | EC50 [4] [nM] | Activity [5] | Selectivity ratio [6] | EC50 [7] [nM] | SMILES | Activity [1]
– | – | – | Active | – | – | C[C@H](NC(=O)[C@@H](O)c1cc(F)cc(F)c1)C(=O)N[C@@H]1C(=O)N(C)c2ccccc2-c2ccccc21 | –
Active | Active | 630 | – | – | – | CCC(CC)C(NS(=O)(=O)c1ccc(Cl)s1)c1ccnn1-c1ccc(O)cc1 (configuration not stated) | Active
Active | Active | 470 | – | 6.9 | 3260 | CC(C)[C@H](NS(=O)(=O)c1ccc(Cl)s1)c1ccnn1-c1ccc(O)cc1 | Active
Active | Active | 2190 | – | – | – | CCC(CC)C(NS(=O)(=O)c1ccc(Cl)s1)c1ccnn1-c1ccc(C(F)(F)F)cc1 (configuration not stated) | Active
Active | Active | 930 | – | – | – | CCCC(NS(=O)(=O)c1ccc(Cl)s1)c1ccnn1Cc1ccc(OC)cc1 (configuration not stated) | Active
Active | Active | 420 | – | – | – | Cc1ccc(-n2nccc2C(NS(=O)(=O)c2ccc(Cl)s2)C(C)C)cc1 (configuration not stated) | Active
Active | Active | 1680 | – | – | – | CCC(CC)C(NS(=O)(=O)c1ccc(Cl)s1)c1ccnn1S(=O)(=O)c1ccc(C)cc1 (configuration not stated) | Active
Active | Active | 70200 | – | – | – | CCC(CC)C(c1ccnn1-c1ccccc1)N(C)S(=O)(=O)c1ccc(Cl)s1 (configuration not stated) | Active
Active | Active | 42400 | – | – | – | CCC(CC)C(NC(=O)c1ccc(Cl)cc1)c1ccnn1Cc1ccc(OC)cc1 (configuration not stated) | Active
Active | Active | > 15000 | – | – | – | CCC(CC)[C@@H](NS(=O)(=O)c1ccc(Cl)s1)c1ccnn1Cc1ccc(OC)cc1 | Active
Active | Active | 23000 | – | – | – | CCC(CC)C(NS(=O)(=O)c1ccc(Cl)cc1)c1ccnn1-c1ccccc1 (configuration not stated) | Active
Active | Active | 1000 | – | – | – | CCCCn1nccc1C(NS(=O)(=O)c1ccc(Cl)s1)C(CC)CC (configuration not stated) | Active
Active | Active | 410 | – | – | – | COc1ccc(Cn2nccc2C(NS(=O)(=O)c2ccc(Cl)s2)C(C)C)cc1 (configuration not stated) | Active
Active | Active | 3360 | – | – | – | CC(C)C(NS(=O)(=O)c1ccc(Cl)s1)c1ncnn1Cc1ccccc1 (configuration not stated) | Active
Active | Active | 1200 | – | – | – | COc1ccc(Cn2nccc2C(C)NS(=O)(=O)c2ccc(Cl)s2)cc1 (configuration not stated) | Active
Active | Active | 2760 | – | – | – | CC(C)C(NS(=O)(=O)c1ccc(Cl)s1)c1ccnn1-c1ccc(F)cc1 (configuration not stated) | Active
Active | Active | 1530 | – | – | – | CCC(CC)C(NS(=O)(=O)c1ccc(Br)s1)c1ccnn1-c1ccccc1 (configuration not stated) | Active
Active | Active | 110 | – | 24 | 2650 | CCC(CC)[C@H](NS(=O)(=O)c1ccc(Cl)s1)c1ccnn1Cc1ccc(OC)cc1 | Active
Active | Active | 140 | – | – | – | CCC(CC)C(NS(=O)(=O)c1ccc(Cl)s1)c1ccnn1Cc1ccc(O)cc1 (configuration not stated) | Active
Active | Active | 13400 | – | – | – | CCC(CC)C(NS(=O)(=O)c1cc(Cl)c(Cl)s1)c1ccnn1-c1ccccc1 (configuration not stated) | Active
Active | Active | 25500 | – | – | – | CCC(CC)C(NS(=O)(=O)c1ccc(Cl)c(Cl)c1)c1ccnn1-c1ccccc1 (configuration not stated) | Active
Active | Active | 2530 | – | – | – | Cc1cccc(-n2nccc2C(NS(=O)(=O)c2ccc(Cl)s2)C(C)C)c1 (configuration not stated) | Active
– | – | – | Active | – | – | C[C@H](NC(=O)Cc1cc(F)cc(F)c1)C(=O)N[C@H](C(=O)OC(C)(C)C)c1ccccc1 | –
